According to patent US8921376B2, “Pyrrolopyridines useful as inhibitors of protein kinase” (Vertex Pharmaceuticals Incorporated, priority 2005, dated 2014):

Experiments:
Format in all cases: biochemical
JAK3 = target: T1, JAK3 (Homo sapiens, UniProt P52333); test: JAK3 inhibition assay (33P incorporation into poly(Glu)4Tyr); details: enzyme inhibition, Table 5
T1 sequence (P52333 1-1124): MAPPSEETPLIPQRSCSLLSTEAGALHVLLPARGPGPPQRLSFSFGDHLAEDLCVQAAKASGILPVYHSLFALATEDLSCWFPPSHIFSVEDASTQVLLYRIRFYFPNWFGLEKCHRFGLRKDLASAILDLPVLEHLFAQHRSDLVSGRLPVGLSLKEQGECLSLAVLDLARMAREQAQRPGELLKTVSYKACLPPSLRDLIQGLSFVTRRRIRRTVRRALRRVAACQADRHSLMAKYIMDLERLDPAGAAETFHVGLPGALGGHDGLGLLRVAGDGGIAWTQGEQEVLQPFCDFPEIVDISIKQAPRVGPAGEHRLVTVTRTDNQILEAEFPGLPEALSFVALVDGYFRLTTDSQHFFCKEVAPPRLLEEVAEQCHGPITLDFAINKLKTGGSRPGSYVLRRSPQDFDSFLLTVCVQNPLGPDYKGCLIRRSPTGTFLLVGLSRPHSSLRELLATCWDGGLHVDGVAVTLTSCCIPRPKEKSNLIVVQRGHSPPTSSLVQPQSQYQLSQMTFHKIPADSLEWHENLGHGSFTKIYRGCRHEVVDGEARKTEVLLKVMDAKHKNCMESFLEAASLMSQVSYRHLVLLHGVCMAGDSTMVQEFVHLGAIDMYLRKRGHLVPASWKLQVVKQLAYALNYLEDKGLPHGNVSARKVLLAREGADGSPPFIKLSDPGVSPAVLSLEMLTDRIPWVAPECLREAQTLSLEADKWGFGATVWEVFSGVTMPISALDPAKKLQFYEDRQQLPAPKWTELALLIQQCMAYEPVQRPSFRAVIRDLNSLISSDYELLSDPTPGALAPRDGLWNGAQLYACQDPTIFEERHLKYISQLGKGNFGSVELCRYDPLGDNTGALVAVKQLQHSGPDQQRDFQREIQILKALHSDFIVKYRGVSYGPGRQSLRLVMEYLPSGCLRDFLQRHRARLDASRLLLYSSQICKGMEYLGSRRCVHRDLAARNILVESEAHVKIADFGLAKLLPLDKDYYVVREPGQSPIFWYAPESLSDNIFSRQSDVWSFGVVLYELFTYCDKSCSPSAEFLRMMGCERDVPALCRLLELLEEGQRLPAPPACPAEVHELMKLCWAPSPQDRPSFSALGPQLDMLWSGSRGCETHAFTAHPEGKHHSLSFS
In short: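 Human JAK3 at 1 nM phosphorylated 1 μM poly(Glu)4Tyr using 5 μM [33P]ATP in HEPES pH 7.4 buffer with MgCl2, DTT and BSA. Reactions ran 20 min at 25° C. and were stopped with TCA. 33P incorporation was measured by scintillation after glass-fiber filter capture.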

JAK2 = JAK2 (Homo sapiens, UniProt O60674); test: JAK2 inhibition assay (as Example 3 with JAK-2 enzyme); details: enzyme inhibition, Table 5
In short: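 Radiometric JAK2 kinase assay: poly(Glu)4Tyr substrate at final 15 μM, ATP at final 12 μM with [33P]; buffer 100 mM HEPES pH 7.4, 1 mM DTT, 10 mM MgCl2, 25 mM NaCl, 0.01% BSA. 20 min at 25 °C, TCA-stopped, 33P incorporation counted after filter capture.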

ROCK I = ROCK I (Homo sapiens, UniProt Q13464); test: ROCK-I inhibition assay (radioactive enzyme assay, MBP substrate); details: enzyme inhibition, Ki(app), Table 5
In short: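 Human ROCK at 5 nM phosphorylated 27 μM myelin basic protein with 13 μM [γ-33P]ATP (final) in HEPES pH 7.5, MgCl2, NaCl, DTT and 1.5% DMSO. Reactions ran 2 h at room temperature before TCA quench and filter-plate scintillation counting. After background subtraction, data were fit to give Ki(app).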

Chain of ROCK I (Q13464 whole entry): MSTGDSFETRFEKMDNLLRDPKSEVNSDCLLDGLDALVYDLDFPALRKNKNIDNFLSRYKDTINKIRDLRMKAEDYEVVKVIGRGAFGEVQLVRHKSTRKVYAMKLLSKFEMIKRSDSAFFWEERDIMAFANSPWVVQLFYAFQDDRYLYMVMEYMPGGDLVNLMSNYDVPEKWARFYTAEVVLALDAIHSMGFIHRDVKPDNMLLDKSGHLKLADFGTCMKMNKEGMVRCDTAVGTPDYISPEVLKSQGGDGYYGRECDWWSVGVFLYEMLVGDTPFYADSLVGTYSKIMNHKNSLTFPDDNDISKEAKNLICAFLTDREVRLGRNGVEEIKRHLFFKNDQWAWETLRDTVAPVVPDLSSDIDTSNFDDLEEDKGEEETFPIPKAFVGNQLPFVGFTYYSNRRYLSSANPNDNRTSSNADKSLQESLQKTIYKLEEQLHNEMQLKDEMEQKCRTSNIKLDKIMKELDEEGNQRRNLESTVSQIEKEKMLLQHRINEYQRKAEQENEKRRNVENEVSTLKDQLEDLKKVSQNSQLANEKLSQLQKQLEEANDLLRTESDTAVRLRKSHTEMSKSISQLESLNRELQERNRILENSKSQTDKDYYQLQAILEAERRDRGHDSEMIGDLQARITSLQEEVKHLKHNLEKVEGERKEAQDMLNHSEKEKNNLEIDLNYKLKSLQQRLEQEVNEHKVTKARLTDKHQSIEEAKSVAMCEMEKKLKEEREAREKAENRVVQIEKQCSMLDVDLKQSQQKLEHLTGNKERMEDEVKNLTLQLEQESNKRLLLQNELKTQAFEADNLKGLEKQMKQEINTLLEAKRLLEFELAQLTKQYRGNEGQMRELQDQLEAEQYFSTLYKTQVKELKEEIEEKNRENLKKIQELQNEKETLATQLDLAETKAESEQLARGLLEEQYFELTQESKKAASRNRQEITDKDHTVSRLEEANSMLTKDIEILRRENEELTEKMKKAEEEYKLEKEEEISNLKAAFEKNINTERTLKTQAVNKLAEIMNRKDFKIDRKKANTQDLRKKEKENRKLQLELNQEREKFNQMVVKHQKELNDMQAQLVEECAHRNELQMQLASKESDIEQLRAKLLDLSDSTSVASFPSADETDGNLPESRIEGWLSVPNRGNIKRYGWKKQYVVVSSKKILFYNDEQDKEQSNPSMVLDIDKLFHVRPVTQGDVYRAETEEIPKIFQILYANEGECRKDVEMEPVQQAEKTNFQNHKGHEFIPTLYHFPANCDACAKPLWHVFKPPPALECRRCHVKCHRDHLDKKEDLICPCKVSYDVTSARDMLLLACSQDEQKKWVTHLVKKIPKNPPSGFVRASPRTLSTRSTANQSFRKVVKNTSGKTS
Chain of JAK2 (O60674 whole entry): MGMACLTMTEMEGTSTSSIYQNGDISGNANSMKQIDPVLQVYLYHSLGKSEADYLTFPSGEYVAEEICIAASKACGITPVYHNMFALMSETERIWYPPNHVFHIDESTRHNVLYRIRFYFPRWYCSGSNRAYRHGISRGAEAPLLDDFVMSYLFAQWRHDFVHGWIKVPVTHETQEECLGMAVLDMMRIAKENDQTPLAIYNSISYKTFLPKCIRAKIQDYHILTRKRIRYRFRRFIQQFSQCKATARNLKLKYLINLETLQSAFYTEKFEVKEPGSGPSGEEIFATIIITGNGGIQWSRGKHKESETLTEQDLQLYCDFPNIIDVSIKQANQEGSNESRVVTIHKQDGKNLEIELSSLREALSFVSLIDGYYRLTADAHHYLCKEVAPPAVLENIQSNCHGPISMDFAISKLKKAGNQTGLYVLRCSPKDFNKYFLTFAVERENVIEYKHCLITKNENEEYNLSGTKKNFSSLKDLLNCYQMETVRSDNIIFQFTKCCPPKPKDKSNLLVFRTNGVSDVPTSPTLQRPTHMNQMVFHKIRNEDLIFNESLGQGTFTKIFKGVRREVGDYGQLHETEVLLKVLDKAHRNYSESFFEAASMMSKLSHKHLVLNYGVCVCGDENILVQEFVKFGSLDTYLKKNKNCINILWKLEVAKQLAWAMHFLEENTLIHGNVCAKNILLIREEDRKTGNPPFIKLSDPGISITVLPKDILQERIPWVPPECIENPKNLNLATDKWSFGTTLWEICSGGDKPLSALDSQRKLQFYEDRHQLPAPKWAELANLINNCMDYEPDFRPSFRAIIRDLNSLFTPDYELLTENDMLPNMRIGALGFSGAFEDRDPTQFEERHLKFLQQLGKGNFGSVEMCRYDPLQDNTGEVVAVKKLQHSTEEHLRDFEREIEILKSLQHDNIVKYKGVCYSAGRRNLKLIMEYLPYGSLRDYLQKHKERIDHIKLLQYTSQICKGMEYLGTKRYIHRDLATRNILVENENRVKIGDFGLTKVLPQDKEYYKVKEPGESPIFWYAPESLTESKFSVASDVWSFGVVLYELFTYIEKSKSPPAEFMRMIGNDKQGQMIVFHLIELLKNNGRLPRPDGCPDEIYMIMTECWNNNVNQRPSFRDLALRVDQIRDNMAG

Row | Ki (JAK3) | Ki (JAK2) | Ki (ROCK I) | Compound
1 | < 500 nM | < 500 nM | < 500 nM | CC(C)c1cccc(-c2ccnc3[nH]ccc23)c1 [compound 109, 4-(3-Isopropyl-phenyl)-1H-pyrrolo[2,3-b]pyridine]
2 | < 500 nM | < 500 nM | < 500 nM | Cc1ccc(-c2ccnc3[nH]ccc23)cc1C [compound 110, 4-(3,4-Dimethyl-phenyl)-1H-pyrrolo[2,3-b]pyridine]
3 | < 500 nM | < 500 nM | < 500 nM | Cn1cc(-c2ccnc3[nH]ccc23)cn1 [compound 111, 4-(1-Methyl-1H-pyrazol-4-yl)-1H-pyrrolo[2,3-b]pyridine]
4 | 500 to 5000 nM | < 500 nM | < 500 nM | Cc1cc(C)cc(-c2ccnc3[nH]ccc23)c1 [compound 112, 4-(3,5-Dimethyl-phenyl)-1H-pyrrolo[2,3-b]pyridine]
5 | 500 to 5000 nM | < 500 nM | < 500 nM | FC(F)(F)c1cccc(-c2ccnc3[nH]ccc23)c1 [compound 113, 4-(3-Trifluoromethyl-phenyl)-1H-pyrrolo[2,3-b]pyridine]
6 | 500 to 5000 nM | 500 to 5000 nM | < 500 nM | Nc1cccc(-c2ccnc3[nH]ccc23)c1 [compound 114, 3-(1H-Pyrrolo[2,3-b]pyridin-4-yl)-phenylamine]
7 | < 500 nM | < 500 nM | < 500 nM | c1cc(-c2ccnc3[nH]ccc23)c2ccoc2c1 [compound 115, 4-Benzofuran-4-yl-1H-pyrrolo[2,3-b]pyridine]
8 | < 500 nM | < 500 nM | < 500 nM | CC(C)Oc1ccc(-c2ccnc3[nH]ccc23)cc1 [compound 116, 4-(4-Isopropoxy-phenyl)-1H-pyrrolo[2,3-b]pyridine]
9 | > 5000 nM | > 5000 nM | 500 to 5000 nM | COC(=O)c1ccccc1-c1ccnc2[nH]ccc12 [compound 117]
10 | > 5000 nM | > 5000 nM | 500 to 5000 nM | CC(=O)Nc1ccccc1-c1ccnc2[nH]ccc12 [compound 118]
11 | > 5000 nM | > 5000 nM | 500 to 5000 nM | Nc1ccccc1-c1ccnc2[nH]ccc12 [compound 119]
12 | < 500 nM | 500 to 5000 nM | 500 to 5000 nM | C[C@H](Nc1ccnc(-c2ccnc3[nH]ccc23)n1)C(=O)NCC(F)(F)F [compound 120, (S)-2-(2-(1H-pyrrolo[2,3b]pyridin-4-yl)pyrimidin-4-ylamino)-N-(2,2,2-trifluoroethyl)propanamide]
13 | < 500 nM | 500 to 5000 nM | 500 to 5000 nM | C[C@H](Nc1nc(-c2ccnc3[nH]ccc23)ncc1F)C(=O)NCC(F)(F)F [compound 121, (S)-2-(5-fluoro-2-(1H-pyrrolo[2,3b]pyridin-4-yl)pyrimidin-4-ylamino)-N-(2,2,2-trifluoroethyl)propanamide]
14 | < 500 nM | 500 to 5000 nM | 500 to 5000 nM | C[C@H](Nc1cccc(-c2ccnc3[nH]ccc23)n1)C(=O)NCC(F)(F)F [compound 122, (S)-2-(6-(1H-pyrrolo[2,3b]pyridin-4-yl)pyridin-2-ylamino)-N-(2,2,2-trifluoroethyl)propanamide]
15 | < 500 nM | < 500 nM | < 500 nM | CC(C)(O)c1cccc(-c2ccnc3[nH]ccc23)n1 [compound 123, 2-(6-(1H-pyrrolo[2,3-b]pyridin-4-yl)pyridin-2-yl)propan-2-ol]
16 | 500 to 5000 nM | > 5000 nM | 500 to 5000 nM | Cc1n[nH]c(C)c1-c1ccnc2[nH]ccc12 [compound 124, 4-(3,5-Dimethyl-1H-pyrazol-4-yl)-1H-pyrrolo[2,3-b]pyridine]

More lines, now with the values behind:

Row | Compound | Ki (JAK3) | Ki (JAK2) | Ki (ROCK I)
17 | O=C(c1cccc(-c2ccnc3[nH]ccc23)c1)N1CCOCC1 [compound 94, Morpholin-4-yl-[3-(1H-pyrrolo[2,3-b]pyridin-4-yl)-phenyl]-methanone] | 500 to 5000 nM | 500 to 5000 nM | 500 to 5000 nM
18 | CN1CCN(C(=O)c2cccc(-c3ccnc4[nH]ccc34)c2)CC1 [compound 95, (4-Methyl-piperazin-1-yl)-[3-(1H-pyrrolo[2,3-b]pyridin-4-yl)-phenyl]-methanone] | > 5000 nM | > 5000 nM | 500 to 5000 nM
19 | CC(C)(C(=O)O)c1cccc(-c2ccnc3[nH]ccc23)n1 [compound 96, 2-(6-(1H-pyrrolo[2,3-b]pyridin-4-yl)pyridin-2-yl)-2-methylpropanoic acid] | 500 to 5000 nM | 500 to 5000 nM | 500 to 5000 nM
20 | CC(C)c1cccc(-c2ccnc3[nH]ccc23)n1 [compound 97, 4-(6-isopropylpyridin-2-yl)-1H-pyrrolo[2,3-b]pyridine] | < 500 nM | < 500 nM | < 500 nM
21 | CC(=O)Nc1cccc(-c2ccnc3[nH]ccc23)n1 [compound 98, N-(6-(1H-pyrrolo[2,3-b]pyridine-4-yl)pyridin-2-yl)acetamine] | 500 to 5000 nM | < 500 nM | 500 to 5000 nM
22 | O=C(Cc1ccccc1)Nc1cccc(-c2ccnc3[nH]ccc23)n1 [compound 99, N-(6-(1H-pyrrolo[2,3-b]pyridine-4-yl)pyridin-2-yl)phenylacetamide] | > 5000 nM | < 500 nM | 500 to 5000 nM
23 | O=C(Nc1cccc(-c2ccnc3[nH]ccc23)n1)c1ccccc1 [compound 100, N-(6-(1H-pyrrolo[2,3-b]pyridine-4-yl)pyridin-2-yl)benzamide] | 500 to 5000 nM | < 500 nM | 500 to 5000 nM
24 | N#CC1(c2cccc(-c3ccnc4[nH]ccc34)n2)CC1 [compound 101, 1-(6-(1H-pyrrolo[2,3-b]pyridin-4-yl)pyridin-2-yl)cyclopropanecarbonitrile] | < 500 nM | < 500 nM | < 500 nM
25 | N#CC1(c2cccc(-c3ccnc4[nH]ccc34)n2)CCCC1 [compound 102, 1-(6-(1H-pyrrolo[2,3-b]pyridin-4-yl)pyridin-2-yl)cyclopentanecarbonitrile] | < 500 nM | < 500 nM | < 500 nM
26 | N#CC1(c2cccc(-c3ccnc4[nH]ccc34)n2)CCCCC1 [compound 103, 1-(6-(1H-pyrrolo[2,3-b]pyridin-4-yl)pyridin-2-yl)cyclohexanecarbonitrile] | < 500 nM | < 500 nM | < 500 nM
27 | c1ncc(-c2ccnc3[nH]ccc23)cn1 [compound 104, 4-Pyrimidin-5-yl-1H-pyrrolo[2,3-b]pyridine] | 500 to 5000 nM | 500 to 5000 nM | 500 to 5000 nM
28 | Oc1cccc(-c2ccnc3[nH]ccc23)c1 [compound 105, 3-(1H-Pyrrolo[2,3-b]pyridin-4-yl)-phenol] | < 500 nM | < 500 nM | < 500 nM
29 | c1cc(-c2ccnc3[nH]ccc23)[nH]n1 [compound 106, 4-(2H-Pyrazol-3-yl)-1H-pyrrolo[2,3-b]pyridine] | < 500 nM | 500 to 5000 nM | < 500 nM
30 | CC(=O)Nc1cccc(-c2ccnc3[nH]ccc23)c1 [compound 107, N-[3-(1H-Pyrrolo[2,3-b]pyridin-4-yl)-phenyl]-acetamide] | 500 to 5000 nM | 500 to 5000 nM | 500 to 5000 nM
31 | N#Cc1ccc(-c2ccnc3[nH]ccc23)s1 [compound 108, 5-(1H-Pyrrolo[2,3-b]pyridin-4-yl)-thiophene-2-carbonitrile] | < 500 nM | < 500 nM | < 500 nM
